# Legend:
# Test in all cases: Kinase inhibitor library screening, PrestoBlue cell viability, 1 or 10 μM, 72 h
# [1] = system: 501Mel cells (parental); conditions: 501Mel Parental, in %
# Outline: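 Normalised to untreated controls, viability percentages came from PrestoBlue measured on a microplate reader following 72 h incubation with drug. Each line was assayed at least twice.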
# [2] = system: 501Mel-GP cells (Dabrafenib-resistant); conditions: 501Mel GP, in %
# [3] = system: 501Mel-XP cells (Vemurafenib-resistant); conditions: 501Mel XP, in %
# [4] = system: A375 cells (parental); conditions: A375 Parental; for cell viability, A375 Parental, 1μΜ / cell viability, A375 Parental, 10μΜ / cell viability (kinase inhibitor library screening): in %
# [5] = system: A375-GP cells (Dabrafenib-resistant); conditions: A375 GP; for cell viability, A375 GP, 1μΜ / cell viability, A375 GP, 10μΜ / cell viability (kinase inhibitor library screening): in %
# [6] = system: A375-XP cells (Vemurafenib-resistant); conditions: A375 XP; for cell viability, A375 XP, 1μΜ / cell viability, A375 XP, 10μΜ / cell viability (kinase inhibitor library screening): in %
# [7] = system: IGR37 cells (parental); conditions: IGR37 Parental, in %
# [8] = system: IGR37-GP cells (Dabrafenib-resistant); conditions: IGR37 GP
# [9] = system: IGR37-XP cells (Vemurafenib-resistant); conditions: IGR37 XP
smiles,measurement,setting,value
C=CC(=O)Nc1cccc(Sc2nc(Nc3ccc(N4CCN(C)CC4)cc3)ncc2Cl)c1 [WZ8040],"cell viability, 501Mel Parental, 1μΜ","[1]; 1μΜ, 72 h",98.5
same,"cell viability, 501Mel Parental, 10μΜ","[1]; 10μΜ, 72 h",-0.212
same,"cell viability, 501Mel GP, 10μΜ","[2]; 10μΜ, 72 h",0.0662
same,"cell viability, 501Mel XP, 1μΜ","[3]; 1μΜ, 72 h",96.4
same,"cell viability, 501Mel XP, 10μΜ","[3]; 10μΜ, 72 h",0.0442
same,"cell viability, A375 Parental, 1μΜ","[4]; 1μΜ, 72 h",97.5
same,"cell viability, A375 Parental, 10μΜ","[4]; 10μΜ, 72 h",1.4
same,"cell viability, A375 GP, 1μΜ","[5]; 1μΜ, 72 h",98.2
same,"cell viability, A375 GP, 10μΜ","[5]; 10μΜ, 72 h",1.6
same,"cell viability, A375 XP, 1μΜ","[6]; 1μΜ, 72 h",104.2
same,"cell viability, A375 XP, 10μΜ","[6]; 10μΜ, 72 h",0.5
same,"cell viability, IGR37 Parental, 10μΜ","[7]; 10μΜ, 72 h",0.328
same,"cell viability, IGR37 GP, 10μΜ","[8]; 10μΜ, 72 h",2.1%
same,"cell viability, IGR37 GP, 1μΜ","[8]; 1μΜ, 72 h, in %",90.2
same,"cell viability, IGR37 XP, 10μΜ","[9]; 10μΜ, 72 h",1.2%
same,"cell viability, IGR37 XP, 1μΜ","[9]; 1μΜ, 72 h, in %",79.2
CN1CCN(CCOc2cc(OC3CCOCC3)c3c(Nc4c(Cl)ccc5c4OCO5)ncnc3c2)CC1 [Saracatinib (AZD0530)],cell viability (kinase inhibitor library screening),[1]; 1μΜ,105.0
same,cell viability (kinase inhibitor library screening),[2]; 1μΜ,100.5
same,cell viability (kinase inhibitor library screening),[2]; 10μΜ,90.5
same,cell viability (kinase inhibitor library screening),[3]; 1μΜ,95.7
same,cell viability (kinase inhibitor library screening),[3]; 10μΜ,79.4
same,cell viability (kinase inhibitor library screening),[4]; 1μΜ,92.2
same,cell viability (kinase inhibitor library screening),[4]; 10μΜ,71.5
same,cell viability (kinase inhibitor library screening),[5]; 1μΜ,81.5
same,cell viability (kinase inhibitor library screening),[5]; 10μΜ,56.9
same,cell viability (kinase inhibitor library screening),[6]; 1μΜ,92.8
same,cell viability (kinase inhibitor library screening),[6]; 10μΜ,71.3
same,cell viability (kinase inhibitor library screening),[7]; 10μΜ,96.3
same,cell viability (kinase inhibitor library screening),"[8]; 1μΜ, in %",96.8
same,cell viability (kinase inhibitor library screening),"[8]; 10μΜ, in %",77.9
same,cell viability (kinase inhibitor library screening),"[9]; 1μΜ, in %",97.3
same,cell viability (kinase inhibitor library screening),"[9]; 10μΜ, in %",61.7
C[C@@H](Oc1cc(-n2cnc3ccc(CN4CCN(C)CC4)cc32)sc1C(N)=O)c1ccccc1C(F)(F)F [GSK461364],"Cell viability in kinase inhibitor library screening, 501Mel Parental, 1μΜ","[1]; 1μΜ, 72 h",18.0
same,"Cell viability in kinase inhibitor library screening, 501Mel Parental, 10μΜ","[1]; 10μΜ, 72 h",16.7
same,"Cell viability in kinase inhibitor library screening, 501Mel GP, 1μΜ","[2]; 1μΜ, 72 h",14.1
same,"Cell viability in kinase inhibitor library screening, 501Mel GP, 10μΜ","[2]; 10μΜ, 72 h",31.3
same,"Cell viability in kinase inhibitor library screening, 501Mel XP, 1μΜ","[3]; 1μΜ, 72 h",8.8
same,"Cell viability in kinase inhibitor library screening, 501Mel XP, 10μΜ","[3]; 10μΜ, 72 h",5.4
same,"Cell viability in kinase inhibitor library screening, A375 Parental, 10μΜ","[4]; 10μΜ, 72 h",29.0
same,"Cell viability in kinase inhibitor library screening, A375 Parental, 1μΜ","[4]; 1μΜ, 72 h",8.9
same,"Cell viability in kinase inhibitor library screening, A375 GP, 1μΜ","[5]; 1μΜ, 72 h",12.0
same,"Cell viability in kinase inhibitor library screening, A375 GP, 10μΜ","[5]; 10μΜ, 72 h",26.2
same,"Cell viability in kinase inhibitor library screening, A375 XP, 1μΜ","[6]; 1μΜ, 72 h",26.8
same,"Cell viability in kinase inhibitor library screening, A375 XP, 10μΜ","[6]; 10μΜ, 72 h",31.7
same,"Cell viability in kinase inhibitor library screening, IGR37 Parental, 1μΜ","[7]; 1μΜ, 72 h",29.0
same,"Cell viability in kinase inhibitor library screening, IGR37 Parental, 10μΜ","[7]; 10μΜ, 72 h",57.5
same,"Cell viability in kinase inhibitor library screening, IGR37 GP, 10μΜ","[8]; 10μΜ, 72 h",69.3%
same,"Cell viability in kinase inhibitor library screening, IGR37 GP, 1μΜ","[8]; 1μΜ, 72 h, in %",91.5
same,"Cell viability in kinase inhibitor library screening, IGR37 XP, 10μΜ","[9]; 10μΜ, 72 h",28.5%
same,"Cell viability in kinase inhibitor library screening, IGR37 XP, 1μΜ","[9]; 1μΜ, 72 h, in %",70.5
CCOc1cc2ncc(C#N)c(Nc3ccc(OCc4ccccn4)c(Cl)c3)c2cc1NC(=O)/C=C/CN(C)C [Neratinib (HKI-272)],"cell viability, 501Mel Parental, 1μΜ","[1]; 1μΜ, 72 h",96.7
same,"cell viability, 501Mel Parental, 10μΜ","[1]; 10μΜ, 72 h",54.8
same,"cell viability, 501Mel GP, 1μΜ","[2]; 1μΜ, 72 h",103.4
same,"cell viability, 501Mel GP, 10μΜ","[2]; 10μΜ, 72 h",64.1
same,"cell viability, 501Mel XP, 1μΜ","[3]; 1μΜ, 72 h",85.2
same,"cell viability, 501Mel XP, 10μΜ","[3]; 10μΜ, 72 h",0.0171
same,"cell viability, A375 Parental, 1μΜ","[4]; 1μΜ, 72 h",97.5
same,"cell viability, A375 Parental, 10μΜ","[4]; 10μΜ, 72 h",29.0
same,"cell viability, A375 GP, 1μΜ","[5]; 1μΜ, 72 h",93.4
same,"cell viability, A375 GP, 10μΜ","[5]; 10μΜ, 72 h",4.2
same,"cell viability, A375 XP, 1μΜ","[6]; 1μΜ, 72 h",89.5
same,"cell viability, A375 XP, 10μΜ","[6]; 10μΜ, 72 h",10.7
same,"cell viability, IGR37 Parental, 1μΜ","[7]; 1μΜ, 72 h",96.7
same,"cell viability, IGR37 Parental, 10μΜ","[7]; 10μΜ, 72 h",66.7
same,"cell viability, IGR37 GP, 10μΜ","[8]; 10μΜ, 72 h",21.6%
same,"cell viability, IGR37 GP, 1μΜ","[8]; 1μΜ, 72 h, in %",81.2
same,"cell viability, IGR37 XP, 10μΜ","[9]; 10μΜ, 72 h",9.6%
same,"cell viability, IGR37 XP, 1μΜ","[9]; 1μΜ, 72 h, in %",75.0
